Data from patent US20240002326A1, “COMPOUNDS AND USE THEREOF IN METHODS OF TREATMENT” (The University of Queensland, priority 2016, published 2024).

How the values were obtained:
[1] = Cytotoxicity assay (Alamar blue), HepG2; assay type: cell-based; conditions: human, HepG2 cells; HepG2, 24 h
[2] = Cytotoxicity assay (Alamar blue), HEK293; assay type: cell-based; conditions: human, HEK293 cells; HEK293, 24 h
Experimental: (§1) Cell toxicity was determined using Alamar blue, as previously described (McMillian et al., 2002). COS-7 cells were seeded as 7000 cells per well in black wall clear bottom 96-well plates in DMEM medium (Life Technologies Australia) with 10% FBS. HepG2 and HEK293 cell lines, from ATCC, were seeded as 5000 cells per well in black wall clear bottom 384-well cell culture plates in DMEM with 1% FBS. Cells were cultured for 24 h at 37° C., 5% CO2. A serial dilution of compounds was added, with a final DMSO concentration adjusted to 0.5% v/v. Cells were incubated for another 24 h. 1 Triton X-100 was used as negative control, and 0.5% DMSO as positive control. 5 μM Alamar blue was added to each well and fluorescence was measured (λexc=560 nm, λem=590 nm) after 2 h incubation at 37° C. Data were analysed using Prism software.

SOX18[109] HMG fragment = SOX18[109] HMG fragment (Mus musculus (Mouse), UniProt P43680); assay: FP DNA-binding competition assay, SOX18[109] HMG fragment; conditions: SOX18/DNA binding; for remaining activity at 50 µM: read-out: FP bound fraction (%) 50 μM; for remaining activity at 200 µM: read-out: FP bound fraction (%) 200 μM
Sequence of SOX18[109] HMG fragment (P43680 69-177): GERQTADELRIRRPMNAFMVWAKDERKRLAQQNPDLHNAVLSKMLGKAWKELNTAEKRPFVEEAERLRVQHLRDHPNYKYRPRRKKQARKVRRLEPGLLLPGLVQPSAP
Experimental: Mouse SOX HMG fragments. The HMG domains of mouse SOX2 (Group B), SOX11 (Group C), SOX6 (Group D), SOX9 (Group E), SOX18 (Group F) and SOX15 (Group G) were BP cloned from cDNA templates (IMAGE cDNA clone IDs: Sox18: 3967084; Sox9: 5354229; Sox4: 6822618) into a pDONRTM221 pENTRY vector, sequenced and recombined into a pETG20A or a pHisMBP expression plasmid using Gateway®LR Technology (Ng et al., 2012). Constructs were transformed into Escherichia coli BL21(DE3) cells (Luria-Bertani, 100 μg/ml Ampicillin).
The DNA-binding competition assay was performed in black 384-well plates, with mouse full length SOX18, or SOX-HMG fragments. All experiments were performed using a fluorescently-labelled Prox1-DNA element. Controls consisted of free labelled DNA (low FP milli-Polarization index, mP), labelled DNA in presence of protein (negative control, high mP), and labelled DNA and protein in presence of competing excess of unlabelled DNA (positive control, low mP)
The DNA-binding competition assay was performed in 25 uL, in black 384-well plates, using either 30 mM HEPES (N-2-Hydroxyethylpiperazine-N′-2-Ethanesulfonic Acid) (pH 7.5, with 100 mM KCl, 40 mM NaCl, 10 mM NH4OAc, […], 2 mM MgCl2, 0.5 mM EDTA, 0.01% NP-40) for mouse full length SOX18, or Tris-NaCl (10 mM Tris pH 8.0 and 100 mM NaCl) for SOX-HMG fragments. All experiments were performed using a 40 bp double-stranded Prox1-DNA element with 5′ fluorescein amidite (FAM) label (Sigma Proligo or InVitrogen). Optimum binding levels were obtained at 200 nM of mouse full length SOX18 and 60 nM of SOX-HMG fragment, in presence of 5 nM labelled DNA. Controls consisted of free labelled DNA (low FP milli-Polarization index, mP), labelled DNA in presence of protein (negative control, high mP), and labelled DNA and protein in presence of 400 time competing excess of unlabelled DNA (positive control, low mP). Depending on compound, final DMSO concentrations ranged from 2 to 3.33% v/v. After mixing protein, DNA probe and compound, plates were sealed and briskly agitated in the dark for 5 minutes at room temperature, 10 minutes at 37° C., and 30 minutes at room temperature, before reading fluorescence polarization on a Tecan M1000Pro (λexc=485 nm, λem=525 nm). All experiments were performed in triplicates.
In order to pinpoint the possible binding site of the small molecules, the FP assays were repeated with a shorter, DNA-binding centred protein fragment. The DNA binding domain of SOX TFs consists of the […] amino acid long High Mobility Group (HMG) box. The 109 amino-acid long SOX18 fragment (SOX18[109]) corresponds to residues 69-177 (numbering by mouse SOX18), which includes the HMG box (residues 78-149) and N- and C-terminal flanking sequences of 9 and 28 amino-acids, respectively.

SOX18-SOX18 homodimer = SOX18-SOX18 homodimer (Homo sapiens (Human), UniProt P35713); assay: ALPHAScreen SOX18-SOX18 homodimerization; assay type: binding; conditions: 5 uM
Sequence of SOX18-SOX18 homodimer (P35713 whole entry): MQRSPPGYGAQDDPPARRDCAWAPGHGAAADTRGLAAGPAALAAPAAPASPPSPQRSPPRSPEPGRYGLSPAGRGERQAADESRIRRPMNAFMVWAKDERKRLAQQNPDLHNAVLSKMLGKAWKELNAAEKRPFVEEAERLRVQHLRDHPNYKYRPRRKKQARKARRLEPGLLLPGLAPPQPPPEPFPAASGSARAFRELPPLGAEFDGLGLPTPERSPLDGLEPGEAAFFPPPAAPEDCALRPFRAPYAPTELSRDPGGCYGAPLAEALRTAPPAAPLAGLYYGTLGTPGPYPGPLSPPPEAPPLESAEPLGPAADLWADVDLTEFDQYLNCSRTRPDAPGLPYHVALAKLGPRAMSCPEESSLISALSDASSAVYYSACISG
Experimental: (§2) ALPHAScreen was performed as previously described (Sierecki et al., 2014, Sierecki et al., 2013), using the cMyc detection kit and Proxiplate-384 Plus plates (PerkinElmer). The LTE lysate co-expressing the proteins of interest was diluted in buffer A (25 mM HEPES, 50 mM NaCl). For the assay, 12.5 μL (0.4 μg) of Anti-cMyc coated Acceptor Beads in buffer B (25 mM HEPES, 50 mM NaCl, 0.001% NP40, 0.001% casein) were aliquoted into each well. This was followed by the addition of 2 μL of diluted sample, at different concentration, and 2 μL of biotin labeled GFP-Nanotrap in buffer A. The plates were incubated for 45 min at room temperature, then adding 2 μL (0.4 μg) of streptavidin-coated Donor Beads diluted in buffer A, and incubation in the dark for 45 min at room temperature. The ALPHAScreen signal was measured on an Envision Plate Reader (PerkinElmer), using manufacturer's recommended settings (λexc=680/30 nm for 0.18 s, λem=570/100 nm after 37 ms). The resulting bell-shaped curve is an indication of a positive interaction, while a flat line reflects a lack of interaction between the proteins. The measurement of each protein pair was repeated in triplicate.
(§3) I is the highest signal level (top of the hook effect curve) and Ineg is the lowest (background) signal level. The signals were normalized to the Iref signal obtained for the strongest interaction. […] Percentage of interaction was calculated as: […]
(§4) The ALPHA-Screen Assay was performed as previously described (Sierecki et al. 2014), using the cMyc detection kit and Proxiplate-384 Plus plates (PerkinElmer). A serial dilution of each sample was measured. The LTE lysate co-expressing the proteins of interest was diluted in buffer A (25 mM HEPES, 50 mM NaCl). For the assay, 12.5 μL (0.4 μg) of Anti-cMyc coated Acceptor Beads in buffer B (25 mM HEPES, 50 mM NaCl, 0.001% NP40, casein) were aliquoted into each well. This was followed by the addition of 2 μL of diluted sample and 2 μL of biotin labeled GFP-Nanotrap in buffer A. The plate was incubated for 45 min at RT. Afterward, 2 μL (0.4 μg) of Streptavidin coated Donor Beads diluted in buffer A, were added, followed by incubation in the dark for 45 min at RT. The ALPHA-Screen signal was obtained on an Envision Multilabel Plate Reader (PerkinElmer), using the manufacturer's recommended settings (excitation: 680/30 nm for 0.18 s, emission: 570/100 nm after 37 ms). The resulting bell-shaped curve is an indication of a positive interaction, while a flat line reflects a lack of interaction between the proteins. The measurement of each protein pair was repeated a minimum of three times using separate plates. The Binding Index was calculated as: BI=[(I−I_neg)/(I_ref−I_neg)]×100
For PPI disruption assay, protein pairs expressed in LTE were incubated for 1 h with 100 μM Sm4 or DMSO alone (0.7% DMSO final). 100 μM Sm4 or DMSO was also added to buffer B. PPI disruption was calculated as: (1−I_Sm4/I_DMSO)×100.
For IC50 determination, the assay was identical but a dilution range of Sm4 was used (0.3 to 300 μM). Percentage of interaction was calculated as: I_Sm4/1 DMSO×100. Data from at least 3 independent experiments were fitted in GraphPad Prism (RRID: SCR_007370) version 6.0 using 3-parameter non-linear regression.

HepG2 = assay: Cytotoxicity assay (Alamar blue), HepG2; assay type: cell-based; conditions: HepG2, 24 h
HEK293 = assay: Cytotoxicity assay (Alamar blue), HEK293; assay type: cell-based; conditions: HEK293, 24 h
Experimental: as §1

SOX18-RBPJ interaction = SOX18-RBPJ interaction (Homo sapiens (Human), UniProt P35713); assay: ALPHAScreen SOX18-RBPJ protein-protein interaction; assay type: binding; conditions: 5 μM
Sequence of SOX18-RBPJ interaction (P35713 whole entry): as above
Description: Proteins were genetically encoded with enhanced GFP (GFP), mCherry and cMyc (myc) tags, and cloned into cell free expression Gateway destination vectors: N-terminal GFP tagged (pCellFree_G03), N-terminal Cherry-cMyc (pCellFree_G07) and C-terminal Cherry-cMyc tagged (pCellFree_G08) (Gagoski et al., 2015). Human RBPJ (BC020780) and MEF2C (BC026341) Open Reading Frames (ORFs) were sourced from the Human ORFeome collection, version 1.1 and 5.1, and the Human Orfeome collaboration OCAA collection (Open Biosystems), as previously described (Sierecki et al., 2013) and cloned at the ARVEC facility, UQ Diamantina Institute. The entry clones pDONOR223 or pENTR201 vectors were exchanged with the ccdB gene in the expression plasmid by LR recombination (Life Technologies, Australia). The full-length human SOX18 gene was synthesized and the transfer to vectors was realized using Gateway PCR cloning. Translation competent Leishmania tarentolae extract (LTE) was prepared as previously described (Kovtun et al., 2011, Mureev et al., 2009). Protein pairs were co-expressed by adding 30 nM of GFP template plasmid and 60 nM of Cherry template plasmid to LTE and incubating for 3 hours at 27° C.
ALPHAScreen was performed as previously described (Sierecki et al., 2014, Sierecki et al., 2013). […] Percentage of interaction was calculated as: (I_cpd/I_DMSO)×100 from 3 independent experiments.
as §2, §3
as §4, with “The measurement of each protein pair was repeated a minimum of three times using separate plates. The Binding Index was calculated as: BI=[(I−I_neg)/(I_ref−I_neg)]×100” left out

| remaining activity at 50 µM (SOX18[109] HMG fragment) [%] | remaining activity at 200 µM (SOX18[109] HMG fragment) [%] | inhibitory activity in respect of SOX18-SOX18 homodimerization (SOX18-SOX18 homodimer) | SOX18-RBPJ protein-protein binding inhibition at 5 μM (SOX18-RBPJ interaction) | Compound | CC50 at 24 h [1] [µM] | CC50 at 24 h [2] [µM] | CC50 (HepG2) [µM] | CC50 (HEK293) [µM] | FP bound fraction (%) 50 μM (SOX18[109] HMG fragment) [%] | FP bound fraction (%) 200 μM (SOX18[109] HMG fragment) [%] |
| --- | --- | --- | --- | --- | --- | --- | --- | --- | --- | --- |
| 98.2 ± 7.4 | 104 ± 10.4 | some inhibitory activity |  | COc1cc(/C=C\c2ccccc2)cc(OC)c1OC [Sm37, (Z)-1,2,3-trimethoxy-5-styrylbenzene] | > 100 | > 100 |  |  |  |  |
| 97.7 ± 5.9 | 91.7 ± 2.1 | some inhibitory activity |  | COc1cc(Cl)cc(/C=C/c2ccc3ccccc3c2)c1C(=O)O [Sm31, (E)-4-chloro-2-methoxy-6-(2-(naphthalen-2-yl)vinyl)benzoic acid] | > 100 | 92.7 |  |  |  |  |
|  |  |  |  | COc1cc(O)c(C(=O)O)c(C=Cc2ccc3ccccc3c2)c1 (mixture of isomers) [Sm28, (E/Z)-2-hydroxy-4-methoxy-6-(2-(naphthalen-2-yl)vinyl)benzoic acid] |  |  | 78.9 | 65.1 | 76.3 ± 2.3 | 19.3 ± 8.4 |
|  |  |  |  | O=C(O)c1c(O)cc(Cl)cc1CCc1ccc2ccccc2c1 [Sm33, (E)-4-chloro-2-hydroxy-6-(2-(naphthalen-2-yl)ethyl)benzoic acid] |  |  | 34.5 | 33.4 | 50.1 ± 54.6 | 9.9 ± 2.3 |
| 98.7 ± 5 | 107 ± 21.3 |  | highly active | CCN(CC)C(=O)c1c(O)cccc1CCc1ccc2ccccc2c1 [Sm18, N,N-diethyl-2-hydroxy-6-(2-(naphthalen-2-yl)ethyl)benzamide] | 28 | 38.7 |  |  |  |  |
|  |  |  |  | N,N-diethyl-2-methoxy-6-(2-(naphthalene-2-yl)vinyl)benzamide [Sm17] |  |  | 38.5 | 62.6 | 100.3 ± 6.0 | 117.0 ± 10.9 |

| Compound | remaining activity at 50 µM (SOX18[109] HMG fragment) [%] | remaining activity at 200 µM (SOX18[109] HMG fragment) [%] | inhibitory activity in respect of SOX18-SOX18 homodimerization (SOX18-SOX18 homodimer) | SOX18-RBPJ protein-protein binding inhibition at 5 μM (SOX18-RBPJ interaction) | CC50 at 24 h [1] [µM] | CC50 at 24 h [2] [µM] | CC50 (HepG2) [µM] | CC50 (HEK293) [µM] | FP bound fraction (%) 50 μM (SOX18[109] HMG fragment) [%] | FP bound fraction (%) 200 μM (SOX18[109] HMG fragment) [%] |
| --- | --- | --- | --- | --- | --- | --- | --- | --- | --- | --- |
| COc1cc(/C=C\c2ccc3ccccc3c2)cc(OC)c1OC [Sm41, (Z)-2-(3,4,5-trimethoxystyryl)naphthalene] | 100 ± 10 | 90.2 ± 46.1 | some inhibitory activity |  | > 100 | > 100 |  |  |  |  |
